From patent US8410056B2, “Pro-oxidant anti-cancer compounds” (priority 2006, dated 2013)

Tests used:
MDA-MB-453 cells = assay: Apoptosis, annexin V-FITC method; format: cell-based, human
Protocol: (§1) Cell culture and treatment. […] Cells were cultured in DMEM with 10% FCS, 100 U/ml penicillin and 100 μg/ml streptomycin at 37° C. in a humidified atmosphere of 5% CO2. Mitochondrial complex I-deficient (Breen and Scheffler 1979; DeFrancesco et al 1976; Scheffler et al 2004) and complex II-deficient cells (Albayrak et al 2003; Oostveen et al 1995) were grown in DMEM with 10% FCS, […] glucose and non-essential amino acids.
At approximately 70% confluency, cells were treated with up to 50 μM α-TOS (Sigma), up to 100 μM 3-BP (Aldrich) or 30 ng/ml of human recombinant tumor necrosis factor-related apoptosis—inducing ligand (TRAIL) (Weber et al, 2002) under normoxic or hypoxic conditions. For hypoxia, cells overlaid with nitrogen-purged medium were placed in a hypoxic chamber pre-flushed extensively with nitrogen. The hypoxic chamber with cells was then placed in the incubator as required. α-TOS was dissolved in ethanol and used such that the final ethanol concentration in cell culture medium was <0.1% (v/v). Stock solutions of 3-BP were prepared in PBS prior to use.
(§2) Apoptosis assessment. Apoptosis was quantified using the annexin V-FITC method, which detects phosphatidyl serine externalized in the early phases of apoptosis (Boersma et al, 1996). Briefly, cells were plated at 10^5 per well in 24-well plates and, after an overnight recuperation, treated with α-TOS or 3-BP alone or in combination. Floating and attached cells were harvested, washed with PBS, resuspended in 0.2 ml binding buffer (10 mM Hepes, 140 mM NaCl, 5 mM CaCl2, pH 7.4), incubated for 30 min at 4° C. with 2 μl annexin V-FITC (PharMingen), supplemented with 200 μl of 50 μg/ml propidium iodide (PI; Sigma), and analyzed by flow cytometry (FACScalibur, Becton Dickinson) using channel 1 for annexin V-FITC binding and channel 2 for PI staining. Cell death was quantified as the percentage of cells with increased annexin V binding and PI staining.
RNA interference (RNAi). Short-interfering RNA (siRNA) oligonucleotides with 3′-dTdT overhangs specific for Akt1 were synthesized by Qiagen. The sequences are as follows: target sequence: […] (SEQ ID NO 2); siRNA duplex sequences: sense—r([…] )dTdT (SEQ ID NO 3), antisense—r([…] )dTdT (SEQ ID NO 4). The transfection of cultured MDA-MB-453 cells with siRNA was performed using OligofectAmine (Invitrogen) and OptiMEM according to the manufacturer's instructions. Briefly, cells were allowed to reach 50% confluency and supplemented with […] siRNA pre-incubated with OligofectAmine and overlayed with OptiMEM. Cells were washed 24 h later with PBS, overlayed with complete DMEM and treated as required after an additional 24 h.
Transfection of MDA-MB-453 cells with siRNAs was performed using OligofectAmine and OptiMEM. Briefly, cells were allowed to reach ˜50% confluency and supplemented with 60 pmol/l siRNA pre-incubated with OligofectAmine and overlayed with OptiMEM. Cells were washed 24 h later with PBS, overlaid with complete DMEM, cultured for an additional 24 h, 48 h and transgene expression confirmed using Western blotting before they were used for further experiments.

[1] = biological target: T1, complex II/SDH-dependent activity in NeuTL cells (Mus musculus, UniProt Q8K2B3+Q9CQA3+Q9CXV1+Q9CZB0); assay: MTT reduction assay of complex II/SDH activity in whole cells; format: cell-based, murine
T1 construct: For specifically measuring complex II activity in whole cells; endogenous in cells; host or cells: NeuTL murine breast cancer cells
T1 sequence (Q8K2B3 43-664): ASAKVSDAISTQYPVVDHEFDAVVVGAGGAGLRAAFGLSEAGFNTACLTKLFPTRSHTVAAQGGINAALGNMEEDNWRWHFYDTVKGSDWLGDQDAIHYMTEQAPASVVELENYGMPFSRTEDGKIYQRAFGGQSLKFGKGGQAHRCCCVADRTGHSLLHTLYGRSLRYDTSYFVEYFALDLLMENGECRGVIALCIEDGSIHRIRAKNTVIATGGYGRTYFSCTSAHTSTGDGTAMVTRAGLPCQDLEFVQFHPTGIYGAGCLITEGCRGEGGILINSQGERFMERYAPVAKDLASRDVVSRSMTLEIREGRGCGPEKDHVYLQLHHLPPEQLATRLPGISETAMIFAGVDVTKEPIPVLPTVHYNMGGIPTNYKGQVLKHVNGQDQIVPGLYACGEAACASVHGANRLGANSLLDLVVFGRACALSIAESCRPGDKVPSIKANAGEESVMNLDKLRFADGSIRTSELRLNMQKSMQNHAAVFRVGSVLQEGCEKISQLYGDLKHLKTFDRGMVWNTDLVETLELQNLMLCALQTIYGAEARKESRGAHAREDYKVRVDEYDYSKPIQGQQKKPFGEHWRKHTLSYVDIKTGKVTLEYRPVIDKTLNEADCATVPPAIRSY
T1 sequence (Q9CQA3 31-282): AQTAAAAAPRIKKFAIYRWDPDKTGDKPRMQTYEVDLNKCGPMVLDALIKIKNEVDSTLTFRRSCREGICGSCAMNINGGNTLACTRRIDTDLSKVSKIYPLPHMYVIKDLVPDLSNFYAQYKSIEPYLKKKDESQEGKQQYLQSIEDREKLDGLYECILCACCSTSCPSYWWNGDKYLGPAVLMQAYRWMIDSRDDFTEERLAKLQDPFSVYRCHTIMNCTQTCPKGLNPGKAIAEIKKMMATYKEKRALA
T1 sequence (Q9CZB0 30-169): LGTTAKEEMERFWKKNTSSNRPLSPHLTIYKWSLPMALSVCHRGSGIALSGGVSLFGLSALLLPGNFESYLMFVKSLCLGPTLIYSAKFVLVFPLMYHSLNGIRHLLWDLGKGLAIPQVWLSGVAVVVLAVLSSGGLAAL
T1 sequence (Q9CXV1 57-159): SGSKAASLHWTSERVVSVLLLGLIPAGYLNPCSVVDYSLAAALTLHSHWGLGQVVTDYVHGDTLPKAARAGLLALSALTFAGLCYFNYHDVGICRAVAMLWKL
Protocol: MTT assay. MTT solutions were prepared immediately before use by dissolving 2.5 mg/ml 3-(4,5-dimethyl[…] (MTT) (Sigma) in PBS alone or phenol red-free RPMI medium containing 20 mM succinic acid, pH 7.4. Stock solutions of 3-nitropropionic acid (3NPA) in ethanol, thenoyltrifluoroacetone (TTFA) in DMSO, 3-BP in PBS, α-TOS in DMSO, and MitoQ (Alleva et al, 2003, James et al, 2005) in ethanol were prepared. The drugs were tested on NeuTL cells cultured in exponential growth phase in 96-well microtitre plates using 4-8 replicate wells per dilution assayed. To assess the ability of MitoQ to restore MTT reduction, cells were pre-incubated for 60 min with 2 or 5 μM MitoQ. Final concentrations of ethanol or DMSO in cultures were ≦0.1%. Treated and control cells were allowed to reduce MTT to blue formazan crystals for 2 or 4 h at 37° C. and 5% CO2. After incubation, culture supernatants were removed except for 30 μl, before the formazan crystals were solubilized by addition of 150 μl DMSO, and absorbance values were measured at 570 nm using a Fluorostar Optima plate reader.
To this end, the present inventors investigated whether α-TOS interferes with UbQ binding in complex II. For specifically measuring complex II activity in whole cells, a short-term (1-2 h) assay was used based on the reduction of the tetrazolium salt, MTT (Maehara et al, 1988). […] For this, oxidative respiration of murine NeuTL breast cancer cells was sustained on high levels of succinate (20 mM), thereby promoting the SDH activity of complex II (Maehara et al, 1988). The cells were then assayed within 1-2 h for their ability to enzymatically reduce MTT, which under conditions of high succinate becomes a specific indicator of complex II/SDH-dependent activity (Maehara et al, 1988, Berridge and Tan, 1993).

[2] = system: Chinese hamster lung fibroblasts (B1, B10, B9, B9rec cells); assay: ROS, SDH activity and apoptosis in complex I- and complex II-deficient cells; format: cell-based
Protocol: as §1
Assessment of ROS accumulation. Cellular ROS were detected with the probe dihydroethidinium (DHE) (Molecular Probes) by flow cytometry (Weber et al, 2003), or by trapping with 5,5-dimethyl-1-pyrroline N-oxide (DMPO; Sigma) using electron paramagnetic resonance (EPR) spectro-scopy (Weber et al, 2003). In some studies, the cells were pre-treated for 1 h with 2 μM MitoQ (James et al, 2005) or coincubated with SOD (PEG-SOD, 750 units/ml; Sigma).
as §2
Complex I- and complex II-deficient cells were also used to confirm the above in vitro results of Example 6.

[3] = system: Jurkat, HBT11, MCF7, MCF7-C3; settings: Birringer et al, cited from earlier work
[4] = compared to parental (B1) or B10 cells

## Cc1c(C)c2c(c(C)c1OC(=O)CCC(=O)O)CC[C@@](C)(CCC[C@H](C)CCC[C@H](C)CCCC(C)C)O2 [Compound 1, α-tocopheryl succinate]
MDA-MB-453 cells; MDA-MB-453 (erbB2-high), normoxia or hypoxia
  apoptosis: sensitive to apoptosis induced by α-TOS under both normoxia and hypoxia
MDA-MB-453 cells; pre-treated with 60 pM Akt1 siRNA for 24 h, then drug 24 h
  apoptosis after Akt1 knock-down: sensitizes
[1]; cells pre-incubated 1 h with MitoQ
  inhibition of MTT reduction after MitoQ pre-incubation: significantly overcome by pre-incubation of the cells with MitoQ
[1]; within a few hours of treatment
  enzymatic reduction of MTT: significant decreases occurring in the levels of MTT reduction
[2]
  apoptosis in B1, B10 and B9 cells: initiated apoptosis
[2]; CybL-mutant (B9) cells after reconstitution of CII
  cell killing in CII-reconstituted B9 cells: restored cell sensitivity to α-TOS-induced killing
[2]; [4]
  ROS accumulation in CII-dysfunctional B9 cells: lower levels of ROS accumulation
  apoptosis in CII-dysfunctional B9 cells: relatively resistant to apoptosis
[3]; compared with α-TOS and isomers
  pro-apoptotic activity: highest apoptogenic activity
[3]; Jurkat, HBT11, MCF7, MCF7-C3, 2003
  IC50: 43 µM
